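96-well plates; 48 h exposure; 5 concentrations. Endpoints by linear interpolation between flanking doses. Not reached: highest tested concentration assigned. At the GI50, growth is halved. TGI: concentration producing complete growth inhibition.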 Bounds are passed on as bounds.

Results on 8 molecules are retold here after PubChem BioAssay (NCI).

Some test systems named below: A549 NSCLC; T-47D breast; TK-10 renal; MDA-MB-435; HOP-92 NSCLC; NCI-H460 lung; SF-539 CNS; SR leukemia; NCI/ADR-RES ovarian; LOX IMVI melanoma.
Holding throughout (experiment): NCI tumour cell line growth inhibition, 48 h

Consider `Oc1ccc(C=Nc2ccccc2O)cc1`, for which the TGI in the experiment on A549 NSCLC is over 100 µM; with T-47D breast, over 100 µM; with TK-10 renal it was over 100 µM; in the experiment with MDA-MB-435, 33 µM; with HOP-92 NSCLC, over 100 µM; with NCI-H460 lung, over 100 µM. Also, the TGI in the experiment with SF-539 CNS, in the experiment on SR leukemia, in the experiment with NCI/ADR-RES ovarian and in the experiment on LOX IMVI melanoma was over 100 µM each time.
`CC1Cc2c(Cl)ncnc2N(C)c2ccc(Cl)cc21` (stereo unspecified): the GI50 in the experiment with A549 NSCLC was 0.378 µM; in the experiment on T-47D breast it was 0.521 µM; in the experiment with TK-10 renal it was 0.315 µM; in the experiment with MDA-MB-435, 0.329 µM; in the experiment with HOP-92 NSCLC it was 0.279 µM; in the experiment on NCI-H460 lung it was 0.381 µM. Also, the GI50 was 0.513 µM with SF-539 CNS, 0.467 µM in the experiment on SR leukemia and 0.333 µM in the experiment on NCI/ADR-RES ovarian. Moreover, the TGI with A549 NSCLC is over 100 µM; in the experiment with T-47D breast it was over 100 µM; in the experiment on TK-10 renal, 13.2 µM; with MDA-MB-435, 1.85 µM; in the experiment on HOP-92 NSCLC it was 0.986 µM; in the experiment with NCI-H460 lung, over 100 µM. Moreover, the TGI in the experiment with SF-539 CNS was over 100 µM; with SR leukemia, over 100 µM; in the experiment with NCI/ADR-RES ovarian, 32.3 µM.
Regarding `COc1ccc2c(c1)C(=O)c1c-2n(CCCN(C)C)c(=O)c2ccccc12`, the GI50 in the experiment on A549 NSCLC was 0.119 µM; in the experiment with T-47D breast, 0.309 µM; in the experiment with TK-10 renal it was 0.722 µM; in the experiment with MDA-MB-435, 0.557 µM; in the experiment on HOP-92 NSCLC, 0.886 µM; in the experiment with NCI-H460 lung, 0.0517 µM. Moreover, the GI50 is 0.282 µM in the experiment on SF-539 CNS, 0.349 µM in the experiment on NCI/ADR-RES ovarian and 0.162 µM in the experiment on LOX IMVI melanoma. In addition, the TGI with A549 NSCLC was determined as 0.559 µM; in the experiment with T-47D breast, 3.56 µM; in the experiment with TK-10 renal it was 9.32 µM; in the experiment with MDA-MB-435, 3.27 µM; with HOP-92 NSCLC, 4.57 µM; in the experiment on NCI-H460 lung it was 0.454 µM. Further, the TGI with SF-539 CNS worked out at 0.979 µM; with SR leukemia, 11.3 µM; with NCI/ADR-RES ovarian it was 9.66 µM; in the experiment on LOX IMVI melanoma, 1.01 µM.
Consider `COc1ccc(C2(Cl)c3ccccc3N(c3ccccc3)c3ccccc32)cc1`, for which the GI50 is 0.407 µM in the experiment with A549 NSCLC; 0.288 µM with T-47D breast; 0.516 µM in the experiment on TK-10 renal; 0.242 µM in the experiment on MDA-MB-435; 1.88 µM in the experiment on HOP-92 NSCLC; 0.484 µM in the experiment with NCI-H460 lung. Also, the GI50 in the experiment on SF-539 CNS is 0.519 µM; with SR leukemia it was 0.357 µM; in the experiment with NCI/ADR-RES ovarian it was 2.05 µM; with LOX IMVI melanoma, 0.282 µM. The TGI amounted to 2.9 µM in the experiment on A549 NSCLC; 5.38 µM in the experiment on T-47D breast; 3.21 µM with TK-10 renal; 1.56 µM in the experiment with MDA-MB-435; 7.13 µM in the experiment with HOP-92 NSCLC; 1.94 µM in the experiment with NCI-H460 lung. The TGI in the experiment on SF-539 CNS stood at 1.95 µM; with SR leukemia, 3.28 µM; in the experiment with NCI/ADR-RES ovarian, 10.5 µM; in the experiment with LOX IMVI melanoma, 1.32 µM.
`Fc1ccc(-c2c(-c3ccncc3)nc3n2CCS3)cc1`: the GI50 with A549 NSCLC was over 25 µM; with T-47D breast it was over 25 µM; with TK-10 renal, over 25 µM; in the experiment with MDA-MB-435, over 25 µM; in the experiment with HOP-92 NSCLC, over 16.9 µM; with NCI-H460 lung, over 25 µM. Besides, the GI50 in the experiment on SF-539 CNS, in the experiment with SR leukemia, in the experiment with NCI/ADR-RES ovarian and in the experiment with LOX IMVI melanoma was over 25 µM in each case. The TGI in the experiment with A549 NSCLC, with T-47D breast, with TK-10 renal, with MDA-MB-435, in the experiment with HOP-92 NSCLC and in the experiment with NCI-H460 lung was over 25 µM in each case. In addition, the TGI in the experiment on SF-539 CNS, in the experiment on SR leukemia, in the experiment with NCI/ADR-RES ovarian and in the experiment with LOX IMVI melanoma was over 25 µM in each case.
With `Cc1cc2c(C(=O)NC[C@H](C)c3ccccc3)c(O)c(O)cc2c(O)c1-c1c(C)cc2c(C(=O)NC[C@H](C)c3ccccc3)c(O)c(O)cc2c1O`, the GI50 in the experiment on A549 NSCLC was 0.0693 µM; with T-47D breast, 0.284 µM; in the experiment with TK-10 renal it was 0.298 µM; in the experiment with MDA-MB-435, 0.232 µM; in the experiment with HOP-92 NSCLC it was 0.276 µM; in the experiment with NCI-H460 lung, 0.0334 µM. Moreover, the GI50 with SF-539 CNS is 0.242 µM; in the experiment with SR leukemia, 0.376 µM; in the experiment with NCI/ADR-RES ovarian it was 0.252 µM; with LOX IMVI melanoma, 0.539 µM. Also, the TGI is 3.23 µM in the experiment on A549 NSCLC; 1.34 µM in the experiment on T-47D breast; 10.6 µM with TK-10 renal; 4.79 µM in the experiment on MDA-MB-435; 1 µM in the experiment with HOP-92 NSCLC; 0.388 µM in the experiment with NCI-H460 lung. Further, the TGI in the experiment on SF-539 CNS was found to be 1.02 µM; in the experiment on SR leukemia, 4.51 µM; in the experiment with NCI/ADR-RES ovarian, 4.3 µM; in the experiment with LOX IMVI melanoma, 4.89 µM.
As for `O=C1Nc2c(ccc(Cl)c2Cl)/C1=C/c1cc(Br)c(O)c(Br)c1`, the GI50 with A549 NSCLC was 7.7 µM; in the experiment with T-47D breast it was 2.99 µM; in the experiment with TK-10 renal, 12 µM; in the experiment on MDA-MB-435, 2.02 µM; in the experiment on HOP-92 NSCLC, 7.17 µM; in the experiment with NCI-H460 lung, 3.13 µM. The GI50 is 3.21 µM in the experiment with SF-539 CNS, 2.77 µM in the experiment on SR leukemia, 2.95 µM in the experiment with NCI/ADR-RES ovarian and 6.94 µM in the experiment with LOX IMVI melanoma. For the same molecule, the TGI was over 100 µM in the experiment with A549 NSCLC; 12.3 µM in the experiment with T-47D breast; over 100 µM in the experiment on TK-10 renal; 5.82 µM with MDA-MB-435; 62.3 µM in the experiment with HOP-92 NSCLC; 16.9 µM in the experiment on NCI-H460 lung. For the same molecule, the TGI in the experiment on SF-539 CNS is 14.8 µM; in the experiment on SR leukemia, over 39.3 µM; in the experiment with NCI/ADR-RES ovarian it was over 24.1 µM; in the experiment with LOX IMVI melanoma it was 63.6 µM.
`Cc1nc([N+](=O)[O-])cn1-c1nc2ccccn2c1[N+](=O)[O-]`: the TGI in the experiment with A549 NSCLC, in the experiment on T-47D breast, with TK-10 renal, in the experiment on MDA-MB-435, with HOP-92 NSCLC and in the experiment on NCI-H460 lung was over 100 µM in each case. The TGI in the experiment with SF-539 CNS, with SR leukemia and with NCI/ADR-RES ovarian was over 100 µM each time.
